Measured values: US20040013733A1, “Preparation of a biodegradable thermal-sensitive gel system” (Industrial Technology Research Institute, priority 2001, published 2004)

System: blood vessel growth (angiogenesis)
Test: The angiogenesis animal model: gel of Example 4 mixed with drug injected to mice, blood vessel growth observed
Type: in vivo
Conditions: drug in gel of Example 4, 0.5 mL gel injected, two months old mice, N=2, after 15 days, gel and adjacent tissue
Method: The gel solution prepared according the process of Example 4 was mixed with various drugs listed in tablet at room temperature and is injected (0.5 mL gel each) to two months old mice, N=2. Sacrifice the mice after 15 days and take out the gel and its adjacent tissue to observe the blood vessel growth. The results are listed in table 1 and shown in the color pictures supplemented (please refer to attachments).
The tissue taken out was observed by electron microscope and the results were shown as FIG. 2.
In other words, the endothecium cell and blood vessels of the host can develop in the beehive structure of the gel. The results tell us that co-administrate the gel of the present invention and angiogenesis drug did benefit angiogenesis.

Substance: bFGF: angiogenesis-inducing growth factor, 250 ng/ml, mixed with gel of Example 4
- Blood vessel growth state: Angiogenesis is present
